Experimental data as given in PubChem BioAssay (NCI).
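Dose response: 5 concentrations. Exposure: 48 h. Format: 96-well plates. Endpoint: linear interpolation; highest concentration if not reached. The concentration for 50% growth inhibition is given as GI50. TGI: concentration producing complete growth inhibition.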

Key:
Assay in all cases: inhibition of tumour cell growth, NCI panel, 48 h
786-0 renal = test system: 786-0 renal
A498 renal = test system: A498 renal
A549 NSCLC = test system: A549 NSCLC
ACHN renal = test system: ACHN renal
BT-549 breast = test system: BT-549 breast
CAKI-1 renal = test system: CAKI-1 renal
COLO 205 colon = test system: COLO 205 colon
DU-145 prostate = test system: DU-145 prostate
EKVX NSCLC = test system: EKVX NSCLC
HCC-2998 colon = test system: HCC-2998 colon
HCT-116 colon = test system: HCT-116 colon
HCT-15 colon = test system: HCT-15 colon
HL-60(TB) leukemia = test system: HL-60(TB) leukemia
HOP-62 NSCLC = test system: HOP-62 NSCLC
HOP-92 NSCLC = test system: HOP-92 NSCLC
HT29 colon = test system: HT29 colon
K-562 leukemia = test system: K-562 leukemia
KM12 colon = test system: KM12 colon
M14 melanoma = test system: M14 melanoma
MCF7 breast = test system: MCF7 breast
MDA-MB-435 = test system: MDA-MB-435
MOLT-4 leukemia = test system: MOLT-4 leukemia
NCI-H226 lung = test system: NCI-H226 lung
NCI-H460 lung = test system: NCI-H460 lung
NCI-H522 lung = test system: NCI-H522 lung
NCI/ADR-RES ovarian = test system: NCI/ADR-RES ovarian
OVCAR-3 ovarian = test system: OVCAR-3 ovarian
OVCAR-4 ovarian = test system: OVCAR-4 ovarian
OVCAR-5 ovarian = test system: OVCAR-5 ovarian
OVCAR-8 ovarian = test system: OVCAR-8 ovarian
PC-3 prostate = test system: PC-3 prostate
RPMI-8226 leukemia = test system: RPMI-8226 leukemia
RXF 393 renal = test system: RXF 393 renal
SF-268 CNS = test system: SF-268 CNS
SF-295 CNS = test system: SF-295 CNS
SF-539 CNS = test system: SF-539 CNS
SK-MEL-2 melanoma = test system: SK-MEL-2 melanoma
SK-MEL-28 melanoma = test system: SK-MEL-28 melanoma
SK-MEL-5 melanoma = test system: SK-MEL-5 melanoma
SK-OV-3 ovarian = test system: SK-OV-3 ovarian
SN12C renal = test system: SN12C renal
SNB-75 CNS = test system: SNB-75 CNS
SR leukemia = test system: SR leukemia
SW-620 colon = test system: SW-620 colon
T-47D breast = test system: T-47D breast
TK-10 renal = test system: TK-10 renal
U251 CNS = test system: U251 CNS
UACC-257 melanoma = test system: UACC-257 melanoma
UO-31 renal = test system: UO-31 renal

Nc1nc(N)c2c(n1)NC(c1ccc(F)cc1)CC(c1ccc(Nc3nc(NCCO)nc(Nc4ccc(Cl)cc4)n3)cc1)=N2 (stereo not drawn)
GI50 (786-0 renal): 1.36 µM | TGI (786-0 renal): 3.11 µM | GI50 (A498 renal): 3.72 µM | TGI (A498 renal): 15.3 µM | GI50 (A549 NSCLC): 3.12 µM | TGI (A549 NSCLC): > 100 µM | GI50 (ACHN renal): 3.22 µM | TGI (ACHN renal): 17.3 µM | GI50 (BT-549 breast): 1.56 µM | TGI (BT-549 breast): 3.17 µM | GI50 (CAKI-1 renal): 6.14 µM | TGI (CAKI-1 renal): 39.6 µM | GI50 (COLO 205 colon): 1.49 µM | TGI (COLO 205 colon): 2.94 µM | GI50 (DU-145 prostate): 1.75 µM | TGI (DU-145 prostate): 3.5 µM | GI50 (EKVX NSCLC): 1.66 µM | TGI (EKVX NSCLC): 5.35 µM | GI50 (HCC-2998 colon): 1.61 µM | TGI (HCC-2998 colon): 3.05 µM | GI50 (HCT-116 colon): 1.2 µM | TGI (HCT-116 colon): 2.5 µM | GI50 (HCT-15 colon): 1.03 µM | TGI (HCT-15 colon): 2.84 µM | GI50 (HL-60(TB) leukemia): 0.863 µM | TGI (HL-60(TB) leukemia): 3.51 µM | GI50 (HOP-62 NSCLC): 1.77 µM | TGI (HOP-62 NSCLC): 4.3 µM | GI50 (HOP-92 NSCLC): 1.25 µM | TGI (HOP-92 NSCLC): 3.54 µM | GI50 (HT29 colon): 1.42 µM | TGI (HT29 colon): 3.15 µM | GI50 (K-562 leukemia): 0.489 µM | TGI (K-562 leukemia): > 100 µM | GI50 (KM12 colon): 1.68 µM | TGI (KM12 colon): 3.71 µM | GI50 (M14 melanoma): 1.66 µM | TGI (M14 melanoma): 3.3 µM | GI50 (MCF7 breast): 0.956 µM | TGI (MCF7 breast): 2.43 µM | GI50 (MDA-MB-435): 1.7 µM | TGI (MDA-MB-435): 3.55 µM | GI50 (MOLT-4 leukemia): 0.532 µM | TGI (MOLT-4 leukemia): 3.47 µM | GI50 (NCI-H226 lung): 2.49 µM | TGI (NCI-H226 lung): 7.11 µM | GI50 (NCI-H460 lung): 1.71 µM | TGI (NCI-H460 lung): 3.63 µM | GI50 (NCI-H522 lung): 1.43 µM | TGI (NCI-H522 lung): 2.97 µM | GI50 (NCI/ADR-RES ovarian): 7.73 µM | TGI (NCI/ADR-RES ovarian): > 100 µM | GI50 (OVCAR-3 ovarian): 1.58 µM | TGI (OVCAR-3 ovarian): 3.28 µM | GI50 (OVCAR-4 ovarian): 1.93 µM | TGI (OVCAR-4 ovarian): 6.43 µM | GI50 (OVCAR-5 ovarian): 5.1 µM | TGI (OVCAR-5 ovarian): 24.4 µM | GI50 (OVCAR-8 ovarian): 1.16 µM | TGI (OVCAR-8 ovarian): 2.81 µM | GI50 (PC-3 prostate): 1.72 µM | TGI (PC-3 prostate): 11.4 µM | GI50 (RPMI-8226 leukemia): 1.01 µM | TGI (RPMI-8226 leukemia): 3.24 µM | GI50 (RXF 393 renal): 1.17 µM | TGI (RXF 393 renal): 2.63 µM | GI50 (SF-268 CNS): 2.85 µM | TGI (SF-268 CNS): 12.3 µM | GI50 (SF-295 CNS): 1.96 µM | TGI (SF-295 CNS): 3.75 µM | GI50 (SF-539 CNS): 1.56 µM | TGI (SF-539 CNS): 3.15 µM | GI50 (SK-MEL-2 melanoma): 1.67 µM | TGI (SK-MEL-2 melanoma): 3.1 µM | GI50 (SK-MEL-28 melanoma): 1.7 µM | TGI (SK-MEL-28 melanoma): 3.18 µM | GI50 (SK-MEL-5 melanoma): 1.46 µM | TGI (SK-MEL-5 melanoma): 2.78 µM | GI50 (SK-OV-3 ovarian): 12.9 µM | TGI (SK-OV-3 ovarian): 25.5 µM | GI50 (SN12C renal): 2.08 µM | TGI (SN12C renal): 5.19 µM | GI50 (SNB-75 CNS): 3.35 µM | TGI (SNB-75 CNS): 16 µM | GI50 (SR leukemia): 0.672 µM | TGI (SR leukemia): 4.75 µM | GI50 (SW-620 colon): 1.6 µM | TGI (SW-620 colon): 3.27 µM | GI50 (T-47D breast): 1.27 µM | TGI (T-47D breast): 3.2 µM | GI50 (TK-10 renal): 4.61 µM | TGI (TK-10 renal): 15.5 µM | GI50 (U251 CNS): 1.37 µM | TGI (U251 CNS): 2.73 µM | GI50 (UACC-257 melanoma): 1.85 µM | TGI (UACC-257 melanoma): 3.52 µM | GI50 (UO-31 renal): 3.07 µM | TGI (UO-31 renal): 20.4 µM
